Laboratory results from ChEMBL document CHEMBL1133322, “The synthesis and vasopressin (AVP) antagonist activity of a novel series of N-aroyl-2,4,5,6-tetrahydropyrazolo[3,4-d]thieno[3,2-b]azepines” (Bioorg Med Chem Lett, 2000).

What was measured:
[1] = system: Rattus norvegicus; test: Urine volume was measured after 4 hours following oral compound dose of 3 mg/kg in rats deprived with food or water; type: functional
[2] = system: Rattus norvegicus; test: Urine volume was measured after 4 hours following oral compound dose of 10 mg/kg in a volume of 10 mL/kg (20% dimethylsulfoxide in 2.5% preboiled starch) in rats deprived with food or water; type: functional
[3] = molecular target: T1, Vasopressin V2 receptor (Homo sapiens, UniProt P30518); test: In vitro binding affinity to human V2 receptor
[4] = system: Rattus norvegicus; test: Urine volume was measured after 4 hours following oral compound dose of 10 mg/kg in rats deprived of food or water (water-loaded 30 mL/kg + 0.4 ug/kg of AVP intraperitoneal); type: functional
[5] = molecular target: T2, Vasopressin V1a receptor (Homo sapiens, UniProt P37288); test: In vitro binding affinity to human V1a receptor
Target sequence in this assay (P37288 whole entry): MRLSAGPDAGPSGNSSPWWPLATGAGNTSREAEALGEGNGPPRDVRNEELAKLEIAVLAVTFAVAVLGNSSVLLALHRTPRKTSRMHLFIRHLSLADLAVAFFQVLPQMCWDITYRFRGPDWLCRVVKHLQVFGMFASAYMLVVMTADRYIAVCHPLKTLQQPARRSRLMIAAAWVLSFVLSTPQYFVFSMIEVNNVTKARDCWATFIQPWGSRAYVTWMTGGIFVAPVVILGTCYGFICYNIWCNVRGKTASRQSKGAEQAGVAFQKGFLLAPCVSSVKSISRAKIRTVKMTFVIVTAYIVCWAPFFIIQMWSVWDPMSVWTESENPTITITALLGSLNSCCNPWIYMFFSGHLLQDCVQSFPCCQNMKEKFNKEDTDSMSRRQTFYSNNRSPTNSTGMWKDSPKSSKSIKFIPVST

[6] = molecular target: T3, Vasopressin V2 receptor (Rattus norvegicus, UniProt Q00788); test: In vitro for its binding affinity to rat V2 receptor
[7] = molecular target: Vasopressin V1a receptor (Rattus norvegicus, UniProt P30560); test: In vitro binding affinity for rat V1a receptor
[8] = molecular target: T3, Vasopressin V2 receptor; test: Binding affinity to rat V2 receptor
[9] = molecular target: Vasopressin V1a receptor (Rattus norvegicus) (UniProt P30560); test: In vitro inhibition against rat V1a receptor at 10 uM
[10] = molecular target: T2, Vasopressin V1a receptor; test: In vitro inhibition against human V1a receptor at 10 uM
Target sequence in this assay (P37288 whole entry, looked up): as the sequence (P37288 whole entry) above

[11] = molecular target: T1, Vasopressin V2 receptor; test: In vitro inhibition against human V2 receptor at 10 uM

T3 sequence (Q00788 whole entry): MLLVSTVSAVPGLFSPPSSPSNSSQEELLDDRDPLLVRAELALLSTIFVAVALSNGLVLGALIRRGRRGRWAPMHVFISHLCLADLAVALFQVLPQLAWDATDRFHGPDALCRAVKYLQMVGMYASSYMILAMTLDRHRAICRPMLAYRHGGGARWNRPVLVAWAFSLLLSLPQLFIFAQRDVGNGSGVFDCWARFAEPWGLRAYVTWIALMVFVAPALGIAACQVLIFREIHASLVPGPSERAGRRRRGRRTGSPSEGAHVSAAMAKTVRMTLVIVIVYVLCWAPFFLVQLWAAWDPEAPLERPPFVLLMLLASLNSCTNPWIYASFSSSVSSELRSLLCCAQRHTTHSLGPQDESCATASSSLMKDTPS
Sequence of Vasopressin V1a receptor (Rattus norvegicus, UniProt P30560) (P30560 whole entry): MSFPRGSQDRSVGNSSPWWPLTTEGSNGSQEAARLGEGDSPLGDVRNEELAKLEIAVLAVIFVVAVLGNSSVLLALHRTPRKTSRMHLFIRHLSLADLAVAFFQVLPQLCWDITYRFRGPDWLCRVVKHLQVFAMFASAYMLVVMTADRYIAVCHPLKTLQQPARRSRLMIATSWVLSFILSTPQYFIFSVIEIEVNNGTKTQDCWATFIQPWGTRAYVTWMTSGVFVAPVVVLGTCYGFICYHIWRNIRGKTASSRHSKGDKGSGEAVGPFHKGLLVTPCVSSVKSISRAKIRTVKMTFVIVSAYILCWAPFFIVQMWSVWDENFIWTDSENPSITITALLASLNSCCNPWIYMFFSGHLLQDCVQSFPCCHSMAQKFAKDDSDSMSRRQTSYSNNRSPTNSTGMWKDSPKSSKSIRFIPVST
T1 sequence (P30518 whole entry): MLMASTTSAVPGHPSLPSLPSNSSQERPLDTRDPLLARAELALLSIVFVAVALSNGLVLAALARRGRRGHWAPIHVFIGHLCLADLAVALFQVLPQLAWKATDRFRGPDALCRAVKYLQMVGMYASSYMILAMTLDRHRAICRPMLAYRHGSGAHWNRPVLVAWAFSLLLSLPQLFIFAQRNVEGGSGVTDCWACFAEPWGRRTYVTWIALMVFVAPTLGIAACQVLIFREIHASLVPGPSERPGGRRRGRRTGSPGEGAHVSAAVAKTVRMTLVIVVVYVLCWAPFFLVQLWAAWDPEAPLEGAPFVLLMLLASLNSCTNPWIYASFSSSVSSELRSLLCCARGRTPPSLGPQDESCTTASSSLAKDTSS
Sequence of Vasopressin V1a receptor (Rattus norvegicus) (P30560 whole entry, looked up): as the sequence (P30560 whole entry) above

Compound | Urine volume [2] [ml 4hr-1] | IC50 [3] [nM] | Urine volume [4] [ml 4hr-1] | IC50 [5] [nM] | other results
Cc1ccc(F)cc1C(=O)Nc1ccc(C(=O)N2Cc3cccn3Cc3ccccc32)c(Cl)c1 [LIXIVAPTAN] | 22 |  |  |  | Urine volume [1]: 20 ml 4hr-1
Cc1ccccc1C(=O)Nc1ccc(C(=O)N2CCc3c[nH]nc3-c3sccc32)cc1 |  | 130 | 21 | 240 | IC50 [6]: 120 nM; IC50 [7]: 2100 nM
O=C(Nc1ccc(C(=O)N2CCCCc3sc(Cl)cc32)c(Cl)c1)c1ccccc1-c1ccccc1 | 22 |  |  |  | 
Cc1ccccc1C(=O)Nc1ccc(C(=O)N2CCc3cn(C)nc3-c3sccc32)cc1 | 3 | 220 |  | 1740 | IC50 [8]: 24 nM; IC50 [7]: 2010 nM
O=C(Nc1ccc(C(=O)N2CCCCc3sc(Cl)cc32)cc1)c1ccccc1-c1ccccc1 | 20 |  |  | 82 | IC50 [8]: 3.2 nM
Cn1cc2c(n1)-c1sccc1N(C(=O)c1ccc(NC(=O)C3CCCCC3)cc1)CC2 |  |  | 9 |  | 
Cc1ccc(F)cc1C(=O)Nc1ccc(C(=O)N2CCc3c[nH]nc3-c3sccc32)cc1 |  | 71 | 18 |  | IC50 [6]: 69 nM
O=C(Nc1ccc(C(=O)N2CCc3c[nH]nc3-c3sccc32)cc1)c1ccc(F)cc1Cl | 15 | 140 |  |  | 
O=C(Nc1ccc(C(=O)N2Cc3cccn3Cc3ccccc32)cc1)c1ccc(Cl)cc1Cl |  |  | 16 |  | 
O=C(Nc1ccc(C(=O)N2CCc3c[nH]nc3-c3sccc32)c(Cl)c1)c1ccccc1-c1ccccc1 | 27 | 1.7 |  |  | Urine volume [1]: 22 ml 4hr-1
Cn1cc2c(n1)-c1sccc1N(C(=O)c1ccc(NC(=O)c3ccc(Cl)cc3Cl)cc1)CC2 |  | 150 | 6 | 4100 | IC50 [8]: 38 nM; IC50 [7]: 2100 nM
O=C(Nc1ccc(C(=O)N2CCCCc3sccc32)c(Cl)c1)c1ccccc1-c1ccccc1 | 19 |  |  | 86 | IC50 [8]: 1.2 nM
O=C(Nc1ccc(C(=O)N2CCc3c[nH]nc3-c3sccc32)c(Cl)c1)c1cc(Cl)ccc1F | 12 |  |  |  | inhibition [9]: 18%
Cc1ccc(F)cc1C(=O)Nc1ccc(C(=O)N2CCCCc3sccc32)c(Cl)c1 |  |  | 4 |  | 
O=C(Nc1ccc(C(=O)N2CCCCc3sc(Cl)cc32)cc1)c1ccc(Cl)cc1Cl |  |  | 8 |  | 
Cc1ccccc1C(=O)Nc1ccc(C(=O)N2CCc3cn(C(=O)c4ccccc4C)nc3-c3sccc32)cc1 |  |  | 14 |  | inhibition [10]: 88%; inhibition [11]: 88%
Cc1ccc(F)cc1C(=O)Nc1ccc(C(=O)N2CCc3c[nH]nc3-c3sccc32)c(Cl)c1 | 7 |  |  |  | inhibition [10]: 69%; IC50 [6]: 6 nM; IC50 [7]: 12400 nM
O=C(Nc1ccc(C(=O)N2Cc3cccn3Cc3ccccc32)c(Cl)c1)c1ccccc1-c1ccccc1 | 27 | 2.7 |  | 370 | Urine volume [1]: 20 ml 4hr-1
O=C(Nc1ccc(C(=O)N2Cc3cccn3Cc3ccccc32)cc1)c1ccccc1-c1ccccc1 | 21 |  |  |  | 
